Source: US7220784B2, “Substituted stilbenes and their reactions” (priority 2000, dated 2007)
Where two headings read alike, the source gives them in different places.

Experiments:
[1] = tested on: K562 human myelogeneous leukaemia cell line; assay: Cytotoxicity/growth inhibition assay (MTT), K562; assay type: cell-based
From the text: In addition to the cell lines described in this paper, other established human cell lines (K562, HUVEC, H460, BE, H529, and HT29) were used in the cytotoxicity/growth inhibition assay. • (1) Inhibition of tubulin assembly. The figure quoted is the concentration required to reduce assembly of tubulin by 50%. Tubulin assembly is monitored by light scatter/absorption at 350 nm.
(§1) (2) Competition for the colchicine binding site on tubulin. The figure quoted represents the % of ^3H-colchicine bound following co-incubation of test compound and ^3H-cochicine with isolated tubulin. Where ester pro-drugs were used the experiments were carried out in the presence and absence of porcine liver esterase. • (3) Cytotoxicity/growth inhibition assay. This was carried out by the MTT assay. • (4) Permeability (shape-change) assay in endothelial cells. […] This involved the diffusion of a fluorescently labelled dextran through a barrier of endothelial cells (HUVEC) grown to confluence on a porous membrane. The effect of agents to alter the shape of these cells results in an increase in the permeability of the cells to the dye. The figure represents the increase in permeability over control cultures when drug is added (30 minutes, 1 mM.). • (5) Experiments to study the anti-vascular effects of these agents were carried out as described previously by our group. […] The anti-vascular effects of the agents were monitored by either positron emission tomography (PET) or by histologogical examination following treatment of mice bearing T50:80 murine breast tumours, or H460 human lung tumours. • (6) Anti-tumour efficacy of agents was determined in xenografts of H460 human lung cancer. Animals (n=5) were trated either with 5 daily injections and tumour size measured with time following treatment. • (7) The pharmacokinetic profile of agents was determined in mice following injection with drug. Blood was taken at various times following treatment and analysed by HPLC with UV detection. […] (AND(P)H:quinone oxidoreductace, EC 1.6.99.2). DT-diaphorase is an enzyme over-expressed in a number of human tumours. […] This two-electron reducing enzyme can be used to selectively activate prodrugs within cancers which over-express the enzyme.

[2] = tested on: tubulin; assay: MA IC50 (Tables 12-26, abbreviation not defined); assay type: biochemical
[3] = tested on: P388 murine leukaemia cell line; assay: Cytotoxicity/growth inhibition assay (MTT), P388; assay type: cell-based
Protocol: as §1

[4] = tested on: tubulin; assay: CD IC50 (Tables 12-26, abbreviation not defined); assay type: binding
[5] = tested on: K562 cells; assay: In situ ultra violet irradiation of dosed K562 cells, IC50; assay type: cell-based, human; settings: read-out: IC50 K562 (Nm)
Protocol: Previously, the isomerisation study had been performed ex situ, i.e. in a photochemical reactor. However, it was necessary to illustrate the potential of the process as a real therapy by repeating the isomerization in the presence of the caner cells i.e. in situ. […] Following irradiation, the cells were incubated in the normal way and the IC50 values were determined.
These consisted of i) exposing K562 cells only (i.e. cells which were not dosed with any potential drug candidate) to ultra violet light, ii) preventing K562 cells dosed with drug candidate from being exposed to ultra violet light, and iii) preventing K562 cells only (i.e. cells which were not dosed with any potential drug candidate) from being exposed to ultra violet light. […]

[6] = tested on: K562; assay: K562 cell cycle analysis; assay type: cell-based, human; settings: K562
[7] = Homo sapiens, K562, MTT, read-out: K562 IC50
[8] = Homo sapiens, K562, Table 22, read-out: MTT (K582) IC50
[9] = Table 22, read-out: MTT (K582) IC50
[10] = of cells with DNA content = 2 n or >2 n

| Compound | IC50 [1, 7] [nM] | IC50 [2] [µM] | IC50 [4] [µM] | also measured |
| --- | --- | --- | --- | --- |
| COc1cc(/C=C\c2ccc(C)c(C)c2)cc(OC)c1OC [Compound 103] | 40 | 2 | > 25 | IC50 ([3]; Mus musculus, P388, MTT): 0.1 µM |
| COC(=O)C(=Cc1ccc(OC)c(O)c1)c1cc(OC)c(OC)c(OC)c1 [Compound 81] |  | > 10 | > 25 | IC50 [1, 8]: > 50000 nM |
| CCOc1cc(C=Cc2ccc(OC)c(Br)c2)cc(OCC)c1OCC [Compound 255] |  | > 10 | > 25 |  |
| Cc1ccc(/C=C/c2ccc(C)c(F)c2)cc1C [Compound 150] |  | > 10 | > 25 | IC50 ([1]; MTT, read-out: K562 IC50): > 50000 nM; IC50 ([3]; MTT): 40 µM |
| CCOc1cc(/C=C/c2ccc(OC)cc2)cc(OCC)c1OCC [Compound 250] |  | > 10 | > 25 | IC50 ([1]; MTT, read-out: K562 IC50): > 50000 nM |
| Cc1ccc(C=Cc2ccc(C)c(C)c2)cc1 [Compound 137] | 3400 | > 10 | > 25 | IC50 ([3]; Mus musculus, P388, MTT): 2 µM |
| COc1ccc(/C=C\c2cc(OC)c(OC)c(O[Si](C)(C)C(C)(C)C)c2)cc1F [Compound 240] | 500 | > 10 | > 25 |  |
| COc1ccc(/C=C(\C)c2cc(OC)c(OC)c(OC)c2)cc1O [Compound 211] | 700 | > 10 | > 25 | IC50 [1, 8]: 700 nM |
| COc1ccc(C=C(C)c2cc(OC)c(OC)c(OC)c2)cc1O[Si](C)(C)C(C)(C)C [Compound 208] |  | 1.5 | > 25 | IC50 [1, 8]: 200 nM |
| COc1ccc(C=C(CO)c2cc(OC)c(OC)c(OC)c2)cc1O [Compound 82] |  | > 10 | > 25 | IC50 [1, 8]: > 50000 nM |
| COc1ccc(/C=C(\C)c2cc(OC)c(OC)c(OC)c2)cc1O[Si](C)(C)C(C)(C)C [Compound 17b, E-1-(3′-t-Butyldimethylsilyloxy-4′-methoxyphenyl)-2-(3″,4″,5″-trimethoxyphenyl)propene] | 6000 |  |  |  |
| CCOc1cc(/C=C/c2ccc(OC)c(F)c2)cc(OCC)c1OCC [Compound 252] |  | > 10 | > 25 | IC50 ([1]; MTT, read-out: K562 IC50): > 50000 nM |
| CCC(=Cc1ccc(OC)c(O[Si](C)(C)C(C)(C)C)c1)c1cc(OC)c(OC)c(OC)c1 [Compound 217] |  | > 10 | > 25 | IC50 [1, 8]: 500 nM |
| COc1ccc(/C=C(/C)c2cc(OC)c(OC)c(OC)c2)cc1 [Compound 23a, Z-1-(4′-Methoxyphenyl)-2-(3″,4″,5″-trimethoxyphenyl)propene] | 100 |  |  |  |
| COc1ccc(/C=C/c2ccc(C)c(C)c2)cc1Br [Compound 144] |  | > 10 | > 25 | IC50 ([1]; MTT, read-out: K562 IC50): > 50000 nM; IC50 ([3]; MTT): > 50 µM |
| COc1ccc(/C=C/c2cc(OC)c(OC)c(O[Si](C)(C)C(C)(C)C)c2)cc1F [Compound 241] |  | > 10 | > 25 | IC50 ([1]; MTT, read-out: K562 IC50): 10000 nM |
| CCOc1cc(C=Cc2ccc(OC)c(Br)c2)cc(OCC)c1OCC [Compound 247] | 600 | > 10 | > 25 |  |
| COc1ccc(/C=C(/C)c2cc(OC)c(OC)c(OC)c2)cc1O[Si](C)(C)C(C)(C)C [Compound 17a, Z-(3′-t-butyldimethylsilyloxy-4′-methoxyphenyl)-2-(3″,4″,5″-trimethoxyphenyl)propene] | 200 |  |  |  |
| CC/C(=C\c1ccc(OC)c(O[Si](C)(C)C(C)(C)C)c1)c1cc(OC)c(OC)c(OC)c1 [Compound 218] |  | > 10 | > 25 | IC50 [1, 9]: 3400 nM |

| Compound | IC50 [1, 7] [nM] | IC50 [2] [µM] | IC50 [4] [µM] | also measured |
| --- | --- | --- | --- | --- |
| COc1ccc(/C=C/c2ccc(C)c(C)c2)cc1 [Compound 142] |  | > 10 | > 25 | IC50 ([1]; MTT, read-out: K562 IC50): > 50000 nM; IC50 ([3]; MTT): 20.5 µM |
| Cc1ccc(C=Cc2ccc(C)c(F)c2)cc1C [Compound 149] | 390 | > 10 | > 25 | IC50 ([3]; Mus musculus, P388, MTT): 7.2 µM |
| COc1ccc(/C=C\c2cc(C)c(C)c(C)c2)cc1Oc1c(F)c(F)nc(F)c1F [Compound 27, (Z)-1-(3′,4′,5′-trimethylphenyl)-2-(3″-(2′″,3′″,5′″,6′″-tetrafluoropyridoxy)-4″-methoxyphenyl)ethene] | 9000 |  |  |  |
| 4-[2′-methoxy-4′-({2″-methoxy-5″-[(E)-2′″-3′″,4′″,5′″-trimethoxyphenyl)ethenyl]phenoxy}methyl)-5′-nitrophenoxy]butanoic acid(potassium salt) [Compound E-12] |  |  |  | IC50 ([5]; in situ UV 0 mins (Table 10)): > 50000 nM; IC50 ([5]; in situ UV 0.5 mins (Table 10)): 1010 nM; IC50 ([5]; in situ UV 1 mins (Table 10)): 410 nM; IC50 ([5]; in situ UV 1.5 mins (Table 10)): 300 nM; IC50 ([5]; in situ UV 2 mins (Table 10)): 160 nM; IC50 ([5]; in situ UV 3 mins (Table 10)): 50 nM; IC50 ([5]; in situ UV 4 mins (Table 10)): 58 nM; IC50 ([5]; in situ UV 5 mins (Table 10)): 46 nM; IC50 ([5]; in situ UV 7.5 mins (Table 10)): 22 nM; IC50 ([5]; in situ UV 10 mins (Table 10)): 16 nM; IC50 ([5]; in situ UV 12.5 mins (Table 10)): 12 nM; IC50 ([5]; in situ UV 15 mins (Table 10)): 10 nM; IC50 ([5]; in situ UV 17.5 mins (Table 10)): 9 nM; IC50 ([5]; in situ UV 20 mins (Table 10)): 8 nM |
| CCOc1cc(/C=C/c2ccc(OC)c(Cl)c2)cc(OCC)c1OCC [Compound 258] |  | > 10 | > 25 | IC50 ([1]; MTT, read-out: K562 IC50): 7000 nM |
| COc1ccc(/C=C\c2cc(O)c(OC)c(OC)c2)cc1F [Compound 242] | 20 | 1.25 | 9 | % of cells with DNA content <2 n [6]: 29%; % of cells in G0–G1 [6, 10]: 7%; % of cells in G2-M [6, 10]: 71%; % of cells in S phase [6, 10]: 22% |
| COc1ccc(/C(C)=C\c2cc(OC)c(OC)c(OC)c2)cc1O [Compound 20, Z-1-(3′,4′,5′-trimethoxyphenyl)-2-(3″-hydroxy-4″-methoxyphenyl)propene] | 1800 |  |  | IC50 ([3]; Mus musculus, P388, MTT): 7 µM |
| CCOc1cc(/C=C/c2ccc(OC)c(O)c2)cc(OCC)c1OCC [Compound 254] |  | > 10 | > 25 | IC50 ([1]; MTT, read-out: K562 IC50): 200 nM |
| CCOc1cc(C=Cc2ccc(OC)c(Cl)c2)cc(OCC)c1OCC [Compound 257] | 450 | > 10 | > 25 |  |
| COc1ccc(/C=C/c2cc(O)c(OC)c(OC)c2)cc1F [Compound 243] |  | > 10 | > 25 | IC50 ([1]; MTT, read-out: K562 IC50): 5000 nM |
| CCOc1cc(/C=C/c2ccc(OC)c(Br)c2)cc(OCC)c1OCC [Compound 248] |  | > 10 | > 25 | IC50 ([1]; MTT, read-out: K562 IC50): > 50000 nM |
| COc1ccc(/C=C(\C)c2cc(OC)c(OC)c(OC)c2)cc1 [Compound 23b, E-1-(4′-Methoxyphenyl)-2-(3″,4″,5″-trimethoxyphenyl)propene] | 790 |  |  |  |
| COc1ccc(C=C(C(=O)O)c2cc(OC)c(OC)c(OC)c2)cc1O [Compound 80] |  | > 10 | > 25 | IC50 [1, 8]: > 50000 nM |
| COc1ccc(/C=C/c2cc(OC)c(OC)c(OC)c2)cc1Br [Compound 96] |  | > 10 | > 25 | IC50 ([1]; MTT, read-out: K562 IC50): 7830 nM |
| CC/C(=C\c1ccc(OC)c(O)c1)c1cc(OC)c(OC)c(OC)c1 [Compound 220] |  | > 10 | > 25 | IC50 [1, 9]: 4000 nM |
| CCOc1cc(C=Cc2ccc(OC)cc2)cc(OCC)c1OCC [Compound 249] | 500 | > 10 | > 25 |  |
| COc1ccc(/C=C(\C)c2cc(OC)c(OC)c(OC)c2)cc1 [Compound 214] |  | > 10 | > 25 | IC50 [1, 9]: 800 nM |
| COc1ccc(/C=C(\C)c2cc(OC)c(OC)c(OC)c2)cc1O[Si](C)(C)C(C)(C)C [Compound 209] |  | > 10 | > 25 | IC50 [1, 9]: 6000 nM |
